Measured values as given in PubChem BioAssay AID190 (DTP/NCI, 2004).
Where “and” joins values, the source holds several entries; their conditions need not be identical. Identical values can stand only once. Toxic doses and inconclusive results are not listed.

Test system: AKR/Lw mice, AKR lymphoma ip, median survival T/C
Test: NCI In Vivo Anticancer Drug Screen. Data for tumor model Lymphoma AKR (Transplanted) (intraperitoneal) in AKR/Lw mice
Details: endpoint: median survival time, higher = longer survival
Protocol: The antitumor activity of compounds was measured in mice bearing transplantable tumors. Survival or tumor size were measured and the results are expressed as the measurement made in the treated group (T) divided by the measurement made in the vehicle treated control group (C). The tumor model used in this assay is Lymphoma AKR (Transplanted) (intraperitoneal) in AKR/Lw mice

[1] = dose: 25.0 mg/kg/injection, schedule: Q04DX003 (ip), vehicle: saline
[2] = dose: 50.0 mg/kg/injection, schedule: Q04DX003 (ip), vehicle: saline
[3] = dose: 100.0 mg/kg/injection, schedule: Q01DX001 (ip), vehicle: saline
[4] = dose: 100.0 mg/kg/injection, schedule: Q04DX003 (ip), vehicle: Klucel (hydroxypropylcellulose) (HPC)
[5] = dose: 200.0 mg/kg/injection, schedule: Q01DX001 (ip), vehicle: saline
[6] = dose: 200.0 mg/kg/injection, schedule: Q04DX003 (ip), vehicle: Klucel (hydroxypropylcellulose) (HPC)

SMILES: CC1CCC(NC(=O)N(CCCl)N=O)CC1 (stereo not drawn)
- T/C (dose: 1.25 mg/kg/injection, schedule: Q14DX003 (ip), vehicle: saline with Tween-80): 112 % of control
- T/C (dose: 2.0 mg/kg/injection, schedule: Q04DX003 (ip), vehicle: saline with Tween-80): 106 % of control
- T/C (dose: 2.0 mg/kg/injection, schedule: Q07DX004 (ip), vehicle: saline with Tween-80): 113 % of control
- T/C (dose: 2.5 mg/kg/injection, schedule: Q01DX006 (ip), vehicle: saline with Tween-80): 93 % of control
- T/C (dose: 2.5 mg/kg/injection, schedule: Q09DX002 (ip), vehicle: saline with Tween-80): 102 % of control
- T/C (dose: 2.5 mg/kg/injection, schedule: Q10DX002 (ip), vehicle: saline with Tween-80): 108 % of control
- T/C (dose: 2.5 mg/kg/injection, schedule: Q14DX003 (ip), vehicle: saline with Tween-80): 108 % of control and 112 % of control (2×)
- T/C (dose: 3.0 mg/kg/injection, schedule: Q01DX001 (ip), vehicle: saline with Tween-80): 111 % of control
- T/C (dose: 4.4 mg/kg/injection, schedule: Q04DX003 (ip), vehicle: saline with Tween-80): 92 % of control
- T/C (dose: 4.4 mg/kg/injection, schedule: Q07DX004 (ip), vehicle: saline with Tween-80): 124 % of control
- T/C (dose: 4.8 mg/kg/injection, schedule: Q01DX001 (ip), vehicle: saline with Tween-80): 116 % of control
- T/C (dose: 5.0 mg/kg/injection, schedule: Q01DX006 (ip), vehicle: saline with Tween-80): 90 % of control
- T/C (dose: 5.0 mg/kg/injection, schedule: Q09DX002 (ip), vehicle: saline with Tween-80): 101 % of control
- T/C (dose: 5.0 mg/kg/injection, schedule: Q10DX002 (ip), vehicle: saline with Tween-80): 94 % of control
- T/C (dose: 6.25 mg/kg/injection, schedule: Q07DX003 (ip), vehicle: saline): 106 % of control and 118 % of control
- T/C (dose: 6.7 mg/kg/injection, schedule: Q07DX004 (ip), vehicle: saline with Tween-80): 118 % of control
- T/C (dose: 7.5 mg/kg/injection, schedule: Q01DX006 (ip), vehicle: saline with Tween-80): 120 % of control
- T/C (dose: 7.5 mg/kg/injection, schedule: Q09DX002 (ip), vehicle: saline with Tween-80): 101 % of control
- T/C (dose: 8.0 mg/kg/injection, schedule: Q09DX002 (ip), vehicle: saline with Tween-80): 86 % of control
- T/C (dose: 10.0 mg/kg/injection, schedule: Q01DX006 (ip), vehicle: saline with Tween-80): 112 % of control
- T/C (dose: 10.0 mg/kg/injection, schedule: Q04DX003 (ip), vehicle: saline with Tween-80): 66 % of control
- T/C (dose: 10.0 mg/kg/injection, schedule: Q04DX004 (ip), vehicle: Klucel (hydroxypropylcellulose) (HPC)): 86 % of control
- T/C (dose: 10.0 mg/kg/injection, schedule: Q07DX004 (ip), vehicle: saline with Tween-80): 107 % of control
- T/C (dose: 10.0 mg/kg/injection, schedule: Q09DX002 (ip), vehicle: saline with Tween-80): 107 % of control (2×) and 117 % of control
- T/C (dose: 10.0 mg/kg/injection, schedule: Q10DX002 (ip), vehicle: saline with Tween-80): 116 % of control
- T/C (dose: 11.0 mg/kg/injection, schedule: Q01DX001 (ip), vehicle: saline with Tween-80): 106 % of control
- T/C (dose: 12.0 mg/kg/injection, schedule: Q01DX001 (ip), vehicle: saline): 103 % of control
- T/C (dose: 13.5 mg/kg/injection, schedule: Q10DX002 (ip), vehicle: saline with Tween-80): 104 % of control
- T/C (dose: 15.0 mg/kg/injection, schedule: Q04DX004 (ip), vehicle: Klucel (hydroxypropylcellulose) (HPC)): 94 % of control
- T/C (dose: 15.0 mg/kg/injection, schedule: Q14DX003 (ip), vehicle: saline with Tween-80): 109 % of control
- T/C (dose: 16.0 mg/kg/injection, schedule: Q01DX001 (ip), vehicle: saline with Tween-80): 111 % of control
- T/C (dose: 16.0 mg/kg/injection, schedule: Q09DX002 (ip), vehicle: saline with Tween-80): 86 % of control
- T/C (dose: 20.0 mg/kg/injection, schedule: Q04DX004 (ip), vehicle: Klucel (hydroxypropylcellulose) (HPC)): 86 % of control
- T/C (dose: 25.0 mg/kg/injection, schedule: Q07DX003 (ip), vehicle: saline): 118 % of control and 121 % of control
- T/C (dose: 27.0 mg/kg/injection, schedule: Q10DX002 (ip), vehicle: saline with Tween-80): 116 % of control
- T/C (dose: 32.0 mg/kg/injection, schedule: Q09DX002 (ip), vehicle: saline with Tween-80): 80 % of control
- T/C (dose: 36.0 mg/kg/injection, schedule: Q01DX001 (ip), vehicle: saline with Tween-80): 116 % of control
- T/C (dose: 36.0 mg/kg/injection, schedule: Q01DX001 (ip), vehicle: saline): 262 % of control
- T/C (dose: 45.0 mg/kg/injection, schedule: Q10DX002 (ip), vehicle: saline with Tween-80): 103 % of control
- T/C (dose: 48.0 mg/kg/injection, schedule: Q01DX001 (ip), vehicle: saline): 100 % of control and 117 % of control
- T/C (dose: 54.0 mg/kg/injection, schedule: Q10DX002 (ip), vehicle: saline with Tween-80): 55 % of control

SMILES: Nc1ccn(C2OC(CO)C(O)C2O)c(=O)n1 (stereo not drawn)
- T/C (dose: 0.18 mg/kg/injection, schedule: Q01DX009 (ip), vehicle: saline): 87 % of control
- T/C (dose: 0.25 mg/kg/injection, schedule: Q01DX015 (ip), vehicle: saline): 86 % of control
- T/C (dose: 0.37 mg/kg/injection, schedule: Q01DX009 (ip), vehicle: saline): 96 % of control
- T/C (dose: 0.5 mg/kg/injection, schedule: Q01DX015 (ip), vehicle: saline): 93 % of control
- T/C (dose: 0.75 mg/kg/injection, schedule: Q01DX009 (ip), vehicle: saline): 100 % of control
- T/C (dose: 1.0 mg/kg/injection, schedule: Q01DX015 (ip), vehicle: saline): 100 % of control
- T/C (dose: 3.12 mg/kg/injection, schedule: Q04DX003 (ip), vehicle: saline): 94 % of control
- T/C (dose: 5.0 mg/kg/injection, schedule: Q01DX009 (ip), vehicle: saline): 150 % of control
- T/C (dose: 5.0 mg/kg/injection, schedule: Q03HX032 (ip), vehicle: saline): 150 % of control
- T/C (dose: 10.0 mg/kg/injection, schedule: Q03HX032 (ip), vehicle: saline): 150 % of control
- T/C (dose: 12.5 mg/kg/injection, schedule: Q04DX003 (ip), vehicle: saline): 94 % of control
- T/C (dose: 15.0 mg/kg/injection, schedule: Q01DX009 (ip), vehicle: saline with Tween-80): 97 % of control
- T/C (dose: 15.0 mg/kg/injection, schedule: Q04DX003 (ip), vehicle: saline): 120 % of control
- T/C (dose: 18.75 mg/kg/injection, schedule: Q06HX004 (ip), vehicle: saline): 150 % of control
- T/C (dose: 18.75 mg/kg/injection, schedule: Q06HX016 (ip), vehicle: saline): 170 % of control
- T/C (dose: 18.8 mg/kg/injection, schedule: Q04DX003 (ip), vehicle: saline): 87 % of control
- T/C (dose: 19.0 mg/kg/injection, schedule: Q04DX003 (ip), vehicle: saline): 100 % of control
- T/C (dose: 25.0 mg/kg/injection, schedule: Q01DX001 (ip), vehicle: saline): 97 % of control
- T/C [1]: 100 % of control
- T/C (dose: 40.0 mg/kg/injection, schedule: Q06HX012 (ip), vehicle: saline): 96 % of control
- T/C (dose: 50.0 mg/kg/injection, schedule: Q01DX001 (ip), vehicle: saline): 94 % of control and 100 % of control
- T/C [2]: 100 % of control
- T/C [3]: 100 % of control
- T/C (dose: 100.0 mg/kg/injection, schedule: Q01DX009 (ip), vehicle: saline): 87 % of control and 96 % of control
- T/C (dose: 150.0 mg/kg/injection, schedule: Q03HX016 (ip), vehicle: saline): 59 % of control
- T/C (dose: 400.0 mg/kg/injection, schedule: Q04DX003 (ip), vehicle: saline): 110 % of control

SMILES: N=Cc1c(O)[nH]c(=O)[nH]c1=O
- T/C [3]: 105 % of control
- T/C [4]: 100 % of control
- T/C [5]: 119 % of control
- T/C [6]: 93 % of control
- T/C (dose: 400.0 mg/kg/injection, schedule: Q01DX001 (ip), vehicle: saline): 88 % of control

SMILES: COc1ccccc1Oc1ccc(N=Cc2ccc(C)cc2)cc1
- T/C (dose: 100.0 mg/kg/injection, schedule: Q01DX001 (ip), vehicle: Klucel (hydroxypropylcellulose) (HPC)): 93 % of control
- T/C [4]: 93 % of control
- T/C (dose: 200.0 mg/kg/injection, schedule: Q01DX001 (ip), vehicle: Klucel (hydroxypropylcellulose) (HPC)): 100 % of control
- T/C [6]: 97 % of control
- T/C (dose: 400.0 mg/kg/injection, schedule: Q01DX001 (ip), vehicle: Klucel (hydroxypropylcellulose) (HPC)): 93 % of control
- T/C (dose: 400.0 mg/kg/injection, schedule: Q04DX003 (ip), vehicle: Klucel (hydroxypropylcellulose) (HPC)): 102 % of control

SMILES: NC(=O)C(Br)CBr (stereo not drawn)
- T/C [1]: 100 % of control
- T/C [2]: 122 % of control
- T/C [3]: 108 % of control
- T/C (dose: 100.0 mg/kg/injection, schedule: Q04DX003 (ip), vehicle: saline): 89 % of control
- T/C [5]: 101 % of control
